In patent US20170360991A1, “DRUG COMPOSITION AND COATING” (W. L. GORE & ASSOCIATES, INC., priority 2015, published 2017):
Counter-ions that a name gives are not always drawn. Blank lines part the entries; values can stand above or below the compound they belong to.

How the values were obtained:
[1] = Ethylene oxide sterilization instability of paclitaxel-niacinamide formulations; details: additive formulated with paclitaxel as solid coating
[2] = Ethylene oxide stability of cast paclitaxel-excipient films; type: physicochemical; details: mean of N = 3
Protocol: Approximately 30 mg of excipient was weighed into a 7 mL glass vial and 6 mL of 75/25 v/v acetone/water was added. A small stirrer bar was added to each vial and all samples were stirred overnight at room temperature to ensure full dissolution. Next, a stock solution of paclitaxel in the casting solvent was made at 5 mg/mL. A specific volume of paclitaxel stock and excipient stock was added to a new vial to achieve the target paclitaxel/excipient weight fraction listed in Table 6. The vials were then mixed and aliquoted to N=6 of the 20 mL vials (0.5 mL each). A paclitaxel-only control was also added to N=6 vials (0.25 mL each). All vials were left in a fume hood overnight to evaporate the solvents. After drying, the samples were capped with cellulose membranes cut to septa size to allow ethylene oxide and moisture permeability. All samples were packaged in breathable polyethylene pouches. N=3 of each paclitaxel/excipient mixture were kept as non-sterilized controls, and the remainder (N=3) were sent for ethylene oxide sterilization (see Test Method D). Non-sterilized controls were stored at room temperature prior to analysis. Paclitaxel content analysis was performed as described in the Evaluation Methods section. Percent paclitaxel recovery was calculated by normalizing to either theoretical initial loading or pre-sterilized samples.

[3] = acetone, ethanol and aqueous mixtures thereof
Source text: As discussed in further detail below, coatings of the invention can be prepared by pipetting a solution containing therapeutic agent and excipient onto the device to be coated. […] Thus, in one embodiment the organic additive is not thiamine-HCl.

[4] = Early experiments on stability of organic additive in solution; type: physicochemical
Source text: Thus, vanillin is not suitable as an organic additive for the present invention.

SMILES: O=C([O-])c1ccccc1O.[Na+] [sodium salicylate]
paclitaxel degradation on ethylene oxide sterilization [1]: cause degradation of the paclitaxel

% PTX recovery, pre vs. post ([2]; cast formulations post ethylene oxide sterilization, normalized to pre-sterilized samples): 101.7% | % PTX recovery, theoretical vs. pre ([2]; cast formulations pre-sterilization, normalized to theoretical loading): 98.2%
SMILES: CC(=O)O[C@H]1C(=O)[C@@]2(C)[C@H]([C@H](OC(=O)c3ccccc3)[C@]3(O)C[C@H](OC(=O)[C@H](O)[C@@H](NC(=O)c4ccccc4)c4ccccc4)C(C)=C1C3(C)C)[C@]1(OC(C)=O)CO[C@@H]1C[C@@H]2O [PTX only, paclitaxel]

solubility [3]: poor solubility
SMILES: Cc1ncc(C[n+]2csc(CCO)c2C)c(N)n1 [thiamine-HCl]

stability in solution [4]: easily degraded in solution
SMILES: COc1cc(C=O)ccc1O [vanillin]
